Measured values: ChEMBL document CHEMBL1122334, “New azacannabinoids highly active in the central nervous system” (1983)

Key:
Assay type in all cases: functional
Rattus norvegicus [1] = assay: The compound was tested for decreasing motor activity in rat at a dose of 20 mg/Kg
Rattus norvegicus [2] = assay: The compound was tested for methamphetamine antagonism in rat at a dose of 20 mg/Kg
Rattus norvegicus [3] = assay: The compound was tested for methamphetamine antagonism in rat at a dose of 80 mg/Kg
Rattus norvegicus [4] = assay: The compound was tested for decreasing motor activity in rat at a dose of 80 mg/Kg
Rattus norvegicus [5] = assay: The compound was tested for decreasing motor activity in rat at a dose of 5 mg/Kg
Rattus norvegicus [6] = assay: The compound was tested for hyperexcitability in rat at a dose of 5 mg/Kg
Rattus norvegicus [7] = assay: The compound was tested for hyperexcitability in rat at a dose of 80 mg/Kg
Rattus norvegicus [8] = assay: The compound was tested for serotonin antagonism in rat at a dose of 80 mg/Kg
Rattus norvegicus [9] = assay: The compound was tested for serotonin antagonism in rat at a dose of 20 mg/Kg
Rattus norvegicus [10] = assay: The compound was tested for serotonin antagonism in rat at a dose of 5 mg/Kg
Rattus norvegicus [11] = assay: The compound was tested for hyperexcitability in rat at a dose of 20 mg/Kg
Rattus norvegicus [12] = assay: The compound was tested for methamphetamine antagonism in rat at a dose of 5 mg/Kg
Mus musculus [13] = assay: The compound was tested for analgesic activity using writhing (W) test in mouse at a dose of 10 mg/Kg
Rattus norvegicus [14] = assay: The compound was tested for decreasing motor activity in rat. at a dose of 5 mg/Kg
Rattus norvegicus [15] = assay: The compound was tested for decreasing motor activity in rat at a dose of 4 mg/Kg
Mus musculus [16] = assay: The compound was tested for activity to decrease fighting in mouse at a dose of 10 mg/Kg
Rattus norvegicus [17] = assay: The compound was tested for decreasing motor activity in rat at a dose of 1 mg/Kg
Rattus norvegicus [18] = organism: Rattus norvegicus; assay: The compound was tested for analgesic activity using (RTF) tail-flick test in rat
Mus musculus [19] = assay: The compound was tested for activity to decrease fighting in mouse at a dose of 5 mg/Kg
Mus musculus [20] = organism: Mus musculus; assay: The compound was tested for analgesic activity using writhing (W) test in mouse
Rattus norvegicus [21] = assay: The compound was tested for decreasing motor activity in rat at a dose of 10 mg/Kg
Mus musculus [22] = assay: The compound was tested for activity to decrease fighting in mouse at a dose of 20 mg/Kg
Rattus norvegicus [23] = assay: The compound was tested for hyperexcitability in rat. at a dose of 80 mg/Kg
Rattus norvegicus [24] = assay: The compound was tested for analgesic activity using (RTF) tail-flick test in rat at a dose of 20 mg/Kg
Rattus norvegicus [25] = assay: The compound was tested for hyper excitability in rat at a dose of 80 mg/Kg
Rattus norvegicus [26] = assay: The compound was tested for hyperexcitability in rat. at a dose of 5 mg/Kg
Mus musculus [27] = assay: The compound was tested for analgesic activity using writhing (W) test in mouse at a dose of 51 mg/Kg
Rattus norvegicus [28] = assay: The compound was tested for hyper excitability in rat at a dose of 20 mg/Kg
Rattus norvegicus [29] = assay: The compound was tested for hyperexcitability in rat at a dose of 10 mg/Kg
Rattus norvegicus [30] = assay: The compound was tested for analgesic activity using (RTF) tail-flick test at a dose of 40 mg/Kg
Mus musculus [31] = assay: The compound was tested for analgesic activity using writhing (W) test in mouse at a dose of 40 mg/Kg
Rattus norvegicus [32] = assay: The compound was tested for analgesic activity using (RTF) tail-flick test in rat at a dose of 40 mg/Kg

Row | SMILES | Decrease in activity (Rattus norvegicus [1]) [%] | Decrease in activity (Rattus norvegicus [2]) [%] | Decrease in activity (Rattus norvegicus [3]) [%] | Decrease in activity (Rattus norvegicus [4]) [%] | Decrease in activity (Rattus norvegicus [5]) [%] | Possible response (Rattus norvegicus [6]) [%] | Possible response (Rattus norvegicus [7]) [%] | Decrease in activity (Rattus norvegicus [8]) [%] | Decrease in activity (Rattus norvegicus [9]) [%] | Decrease in activity (Rattus norvegicus [10]) [%] | Possible response (Rattus norvegicus [11]) [%] | Decrease in activity (Rattus norvegicus [12]) [%] | increase in response (Mus musculus [13]) [%] | Decrease in activity (Rattus norvegicus [14]) [%] | Decrease in fighting (Mus musculus [19]) [%] | Decrease in fighting (Mus musculus [22]) [%] | other results
1 | CCCCCC(C)C(C)c1cc(O)c2c(c1)OC(C)(C)C1=C2CN(C(C)C(=O)NC(N)=O)CC1 (configuration not stated) | 67 | 50 | 81 | 83 | 67 | 50 | 77 | 98 | 43 | 11 | 63 | 47 | – | – | – | – | –
2 | CCCCCC(C)C(C)c1cc(O)c2c(c1)OC(C)(C)C1=C2CN(CC(=O)NC(=O)NC)CC1 (configuration not stated) | 68 | 66 | 54 | 88 | 63 | 35 | 81 | 89 | 50 | 34 | 71 | 38 | – | – | – | – | –
3 | CCCCCC(C)C(C)c1cc(O)c2c(c1)OC(C)(C)C1=C2CN(CCC(N)=O)CC1 (configuration not stated) | 65 | 17 | 13 | 83 | – | 0 | 67 | -71 | -13 | -73 | 0 | -4 | 0 | 49 | – | – | –
4 | C#CCN1CCC2=C(C1)c1c(O)cc(C(C)CCCc3ccc(F)cc3)cc1OC2(C)C (configuration not stated) | – | 34 | 84 | – | – | 60 | – | – | – | – | 100 | 8 | – | – | -29 | – | Decrease in activity (Rattus norvegicus [15]): 77%; Decrease in fighting (Mus musculus [16]): 47%; Decrease in activity (Rattus norvegicus [17]): 60%; ED50 (Rattus norvegicus [18]): 3.7 mg/kg; ED50 (Mus musculus [20]): 5.3 mg/kg
5 | CCCCCC(C)C(C)c1cc(O)c2c(c1)OC(C)(C)C1=C2CN(CC(=O)NC(=O)Nc2ccccc2)CC1 (configuration not stated) | 42 | -24 | -28 | 51 | 37 | 0 | 0 | -17 | -15 | -56 | 0 | -37 | – | – | – | – | –
6 | CCCCCc1cc(O)c2c(c1)OC(C)(C)[C@@H]1CCC(C)=C[C@@H]21 [DRONABINOL] | 72 | – | – | – | 15 | 29 | – | – | – | – | 100 | – | – | – | 36 | – | Decrease in activity (Rattus norvegicus [21]): 41%; ED50 (Rattus norvegicus [18]): 27 mg/kg; ED50 (Mus musculus [20]): 43 mg/kg
7 | CC(CCCc1ccc(F)cc1)c1cc(O)c2c(c1)OC(C)(C)C1=C2CN(CC(=O)N(C)C)CC1 (configuration not stated) | 27 | 34 | 54 | 68 | – | 0 | 69 | 55 | 12 | 11 | 10 | -35 | 24 | 0 | 3 | 12 | –
8 | CNC(=O)CN1CCC2=C(C1)c1c(O)cc(C(C)CCCc3ccc(F)cc3)cc1OC2(C)C (configuration not stated) | 66 | 63 | 73 | 94 | – | 92 | 100 | 92 | 63 | 6 | 100 | 51 | 71 | 73 | 56 | 93 | –
9 | CCCCCC(C)C(C)c1cc(O)c2c(c1)OC(C)(C)C1=C2CN(CC(=O)Nc2ccccc2)CC1 (configuration not stated) | 18 | 15 | -9 | 6 | 4 | 0 | 0 | -13 | -28 | 3 | 0 | 0 | 12 | – | – | – | –
10 | CCCCCC(C)C(C)c1cc(O)c2c(c1)OC(C)(C)C1=C2CN(CC(=O)NC)CC1 (configuration not stated) | 66 | 72 | 72 | 93 | 33 | 92 | – | 97 | 21 | -54 | 100 | 72 | – | – | 11 | 34 | Possible response (Rattus norvegicus [23]): 100%; increase in response (Rattus norvegicus [24]): 92%; ED50 (Mus musculus [20]): 5.1 mg/kg
11 | CCCCCC(C)C(C)c1cc(O)c2c(c1)OC(C)(C)C1=C2CN(CC(=O)OCC)CC1 (configuration not stated) | 19 | 54 | 81 | 60 | 49 | – | – | 89 | 56 | 60 | – | 18 | 35 | – | – | – | Possible response (Rattus norvegicus [25]): 81%; Possible response (Rattus norvegicus [26]): 0%; increase in response (Mus musculus [27]): 51%; Possible response (Rattus norvegicus [28]): 12%
12 | C#CCN1CCC2=C(C1)c1c(O)cc(C(C)C(C)CCCCC)cc1OC2(C)C (configuration not stated) | – | 80 | 73 | – | – | 29 | – | 33 | 84 | 81 | – | 59 | – | – | 48 | – | Decrease in activity (Rattus norvegicus [21]): 51%; Decrease in fighting (Mus musculus [16]): 62%; ED50 (Rattus norvegicus [18]): 14 mg/kg; Possible response (Rattus norvegicus [29]): 71%; ED50 (Mus musculus [20]): 4.3 mg/kg
13 | CCCCCC(C)C(C)c1cc(O)c2c(c1)OC(C)(C)C1=C2CN(CC(N)=O)CC1 (configuration not stated) | 78 | 58 | 71 | 86 | – | 65 | 98 | 78 | 83 | 71 | 79 | 42 | 6 | 28 | 10 | 21 | increase in response (Rattus norvegicus [30]): 132%; increase in response (Mus musculus [31]): 82%
14 | CCCCCC(C)C(C)c1cc(O)c2c(c1)OC(C)(C)C1=C2CN(CC(=O)N(C)C)CC1 (configuration not stated) | 65 | -36 | 26 | 78 | – | 0 | 69 | – | – | – | 13 | -43 | 19 | 53 | 10 | 13 | increase in response (Rattus norvegicus [32]): 84%; increase in response (Mus musculus [31]): 86%
15 | CC(CCCc1ccc(F)cc1)c1cc(O)c2c(c1)OC(C)(C)C1=C2CN(CC(=O)NCC(N)=O)CC1 (configuration not stated) | 12 | 2 | 25 | 9 | -11 | 0 | 0 | 26 | -10 | -17 | 0 | 1 | – | – | – | – | –
